According to ChEMBL document CHEMBL1134376, “Structure-activity relationship studies of 4-[2-(diphenylmethoxy)ethyl]-1-benzylpiperidine derivatives and their N-analogues: evaluation of O-and N-analogues and their binding to monoamine transporters” (J Med Chem, 2001):

Assays:
[1] = biological target: Monoamine transporters; serotonin & dopamine (Rattus norvegicus) (UniProt P31652+P23977); assay: Selectivity for serotonin transporter compared to dopamine transporter.; type: protein assay
[2] = biological target: Sodium-dependent dopamine transporter (Rattus norvegicus, UniProt P23977); assay: In vitro binding affinity at dopamine transporter in rat striatum by [3H]WIN-35428 displacement.; type: tissue-based
[3] = biological target: Sodium-dependent serotonin transporter (Rattus norvegicus, UniProt P31652); assay: In vitro binding affinity at serotonin transporter in rat striatum by [3H]- citalopram displacement.; type: tissue-based
[4] = biological target: Norepinephrine transporter (Rattus norvegicus, UniProt Q9WTR4); assay: Affinity at norepinephrine transporter (NET) in rat striatum, using [3H]- nisoxatine as radioligand; type: tissue-based
Rattus norvegicus = species: Rattus norvegicus; assay: Inhibition of dopamine reuptake ([3H]DA uptake) in […]; type: functional
[5] = biological target: Sodium-dependent dopamine transporter (Rattus norvegicus) (UniProt P23977); assay: Ratio of ([3H]-DA uptake) / [3H]WIN-35428 binding was determined in […]
Sequence of Sodium-dependent dopamine transporter (Rattus norvegicus) (P23977 whole entry, looked up): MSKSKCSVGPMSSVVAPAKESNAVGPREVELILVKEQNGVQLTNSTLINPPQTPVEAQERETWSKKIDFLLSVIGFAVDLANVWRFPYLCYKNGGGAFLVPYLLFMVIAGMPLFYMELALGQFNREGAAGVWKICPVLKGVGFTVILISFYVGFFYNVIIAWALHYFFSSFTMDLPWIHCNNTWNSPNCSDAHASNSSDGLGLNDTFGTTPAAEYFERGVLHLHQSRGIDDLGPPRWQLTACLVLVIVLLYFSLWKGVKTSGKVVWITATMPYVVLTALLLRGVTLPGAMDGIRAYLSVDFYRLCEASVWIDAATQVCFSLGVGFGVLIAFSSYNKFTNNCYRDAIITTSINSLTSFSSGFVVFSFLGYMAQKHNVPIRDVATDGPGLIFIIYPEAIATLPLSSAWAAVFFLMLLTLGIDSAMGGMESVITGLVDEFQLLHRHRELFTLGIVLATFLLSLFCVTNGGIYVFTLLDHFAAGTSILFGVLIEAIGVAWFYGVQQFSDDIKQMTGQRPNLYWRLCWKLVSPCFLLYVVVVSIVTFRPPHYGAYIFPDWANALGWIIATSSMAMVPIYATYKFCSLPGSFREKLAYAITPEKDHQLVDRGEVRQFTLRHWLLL

Sequence of Sodium-dependent serotonin transporter (P31652 whole entry): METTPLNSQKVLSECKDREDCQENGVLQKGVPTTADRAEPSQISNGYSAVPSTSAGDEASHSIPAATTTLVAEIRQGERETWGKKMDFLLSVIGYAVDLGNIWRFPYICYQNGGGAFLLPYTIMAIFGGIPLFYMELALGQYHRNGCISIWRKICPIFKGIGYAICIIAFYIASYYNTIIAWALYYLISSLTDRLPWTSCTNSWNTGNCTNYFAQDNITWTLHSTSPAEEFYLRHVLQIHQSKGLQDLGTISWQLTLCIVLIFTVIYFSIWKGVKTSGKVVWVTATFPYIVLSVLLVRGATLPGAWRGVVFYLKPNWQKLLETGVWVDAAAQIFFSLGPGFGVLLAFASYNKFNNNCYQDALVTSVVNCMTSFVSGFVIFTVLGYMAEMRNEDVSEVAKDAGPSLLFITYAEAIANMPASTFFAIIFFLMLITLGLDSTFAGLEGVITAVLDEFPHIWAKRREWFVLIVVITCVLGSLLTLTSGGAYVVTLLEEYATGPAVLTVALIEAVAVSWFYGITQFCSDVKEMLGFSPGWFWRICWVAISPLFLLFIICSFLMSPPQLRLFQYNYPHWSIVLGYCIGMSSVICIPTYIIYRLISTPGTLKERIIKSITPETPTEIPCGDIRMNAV
Sequence of Norepinephrine transporter (Q9WTR4 whole entry): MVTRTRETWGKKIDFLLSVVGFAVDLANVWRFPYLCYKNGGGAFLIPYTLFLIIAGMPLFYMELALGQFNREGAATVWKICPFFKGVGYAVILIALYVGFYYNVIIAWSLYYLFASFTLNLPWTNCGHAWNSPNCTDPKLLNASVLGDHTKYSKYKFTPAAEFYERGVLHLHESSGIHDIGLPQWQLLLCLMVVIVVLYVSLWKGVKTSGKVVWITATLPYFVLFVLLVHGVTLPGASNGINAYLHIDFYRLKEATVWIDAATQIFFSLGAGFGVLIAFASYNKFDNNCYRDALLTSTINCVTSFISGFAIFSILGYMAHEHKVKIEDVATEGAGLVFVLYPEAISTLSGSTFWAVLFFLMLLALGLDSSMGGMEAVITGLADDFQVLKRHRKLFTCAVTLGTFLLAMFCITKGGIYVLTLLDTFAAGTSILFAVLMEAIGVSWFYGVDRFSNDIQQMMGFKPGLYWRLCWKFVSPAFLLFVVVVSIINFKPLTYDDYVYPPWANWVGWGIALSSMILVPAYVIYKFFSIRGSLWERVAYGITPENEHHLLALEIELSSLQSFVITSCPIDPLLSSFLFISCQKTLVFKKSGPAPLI
Sequence of Monoamine transporters; serotonin & dopamine (Rattus norvegicus) (P23977 whole entry, looked up): as the sequence (P23977 whole entry, looked up) above
Sequence of Monoamine transporters; serotonin & dopamine (Rattus norvegicus) (P31652 whole entry, looked up): as the sequence (P31652 whole entry) above
Sequence of Sodium-dependent dopamine transporter (P23977 whole entry): as the sequence (P23977 whole entry, looked up) above

IC50 [2] | IC50 [3] | SMILES | Ratio [1] | IC50 [4] | IC50 (Rattus norvegicus) | Ratio [5]
– | – | CC(NCCC1CCN(Cc2ccc(F)cc2)CC1)c1ccccc1 (centres undefined) | 3.2 | – | – | –
– | – | CN(CC1CCN(Cc2ccc(F)cc2)CC1)CC(c1ccccc1)c1ccccc1 | 27 | – | – | –
0.751 µM | 5.86 µM | CC(OCCC1CCN(Cc2ccc(F)cc2)CC1)c1ccccc1 (centres undefined) | 7.8 | – | – | –
– | – | Fc1ccc(CN2CCC(CCNC(c3ccccc3)c3ccccc3)CC2)cc1F | – | 1.03 µM | 0.0107 µM | –
– | – | c1ccc(CN2CCC(CCNC(c3ccccc3)c3ccccc3)CC2)cc1 | – | 2.62 µM | 0.0206 µM | –
– | – | CS(=O)(=O)Nc1ccc(CN2CCC(CCOC(c3ccccc3)c3ccccc3)CC2)cc1 | 22 | – | 0.00973 µM | 0.36
– | – | Fc1ccc(C(NCC2CCN(CCc3ccccc3)CC2)c2ccc(F)cc2)cc1 | 17 | – | – | –
– | – | Fc1ccc(CN2CCC(CCOC(c3ccccc3)c3ccccc3)CC2)cc1F | 122 | 0.921 µM | – | –
– | – | Fc1ccc(CN2CCC(CCOC(c3ccccc3)c3ccccc3)CC2)cc1 | 113 | – | 0.00248 µM | –
– | – | Fc1ccc(CN2CCC(CCNC(c3ccccc3)c3ccccc3)CC2)cc1 | 62 | 0.945 µM | 0.012 µM | 1.33
0.213 µM | 1.66 µM | CN(CCC1CCN(Cc2ccc(F)cc2)CC1)C(c1ccccc1)c1ccccc1 | 7.8 | – | – | –
– | – | N#Cc1ccc(CN2CCC(CCOC(c3ccccc3)c3ccccc3)CC2)cc1 | 615 | 0.342 µM | 0.00458 µM | –
– | – | Fc1ccc(CN2CCC(CNOC(c3ccccc3)c3ccccc3)CC2)cc1 | 19 | 0.691 µM | 0.0166 µM | 0.48
– | – | Fc1cccc(CN2CCC(CCOC(c3ccccc3)c3ccccc3)CC2)c1 | 49 | – | – | –
– | – | Fc1ccc(CN2CCC(CNCC(c3ccccc3)c3ccccc3)CC2)cc1 | 7 | 1.1 µM | 0.0496 µM | 2.5
– | – | FC(F)(F)c1ccc(CN2CCC(CCOC(c3ccccc3)c3ccccc3)CC2)cc1 | 71 | – | – | –

SMILES | IC50 [2] | IC50 [3] | Ratio [1] | IC50 [4] | IC50 (Rattus norvegicus) | Ratio [5]
O=C(Cc1ccccc1)N1CCC(CCOC(c2ccccc2)c2ccccc2)CC1 | – | 13.2 µM | 6.1 | – | – | –
